Measurements published in US8952024B2, “Herbicidal pyrimidone derivatives” (E I du Pont de Nemours and Company, priority 2009, dated 2015).

How the values were obtained:
Assay type in all cases: in vivo
[1] = system: Russian thistle (Salsola kali); assay: Test B pre-/postemergence plant response; conditions: Preemergence; for Russian Thistle plant response rating: 250 g ai/ha, 0 to 100 scale
Outline: (§1)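 Greenhouse herbicide screen. Pre- and postemergence (1- to 4-leaf) spray of compound in solvent/surfactant mixture; loam–sand soil for pre, peat/vermiculite medium for post. Visual control rating 0–100 at 13 to 15 days after treatment.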

[2] = system: naked crabgrass (Digitaria nuda); assay: Test D pre-/postemergence plant response
Outline: (§2)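 Visual 0–100 scoring (100 = complete control) versus untreated controls after 14–21 greenhouse days. Compounds, formulated in surfactant-containing non-phytotoxic solvent, were applied preemergence to seeded loam/sand and postemergence to 2–18 cm plants (1–4 leaves).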

[3] = system: morningglory (pitted morningglory, Ipomoea lacunosa); assay: Test D pre-/postemergence plant response
Outline: as §2

[4] = system: deadnettle (henbit deadnettle, Lamium amplexicaule); assay: Test B pre-/postemergence plant response; conditions: Postemergence
Outline: as §1

[5] = 31 g ai/ha, scale 0 to 100 (0 no effect, 100 complete control)
[6] = 62 g ai/ha, scale 0 to 100 (0 no effect, 100 complete control)
[7] = 125 g ai/ha, scale 0 to 100, 0 no effect, 100 complete control
[8] = Preemergence, 62 g ai/ha, scale 0 to 100
[9] = Preemergence, 125 g ai/ha, scale 0 to 100
[10] = Preemergence, 250 g ai/ha, scale 0 to 100
[11] = Postemergence, 31 g ai/ha, scale 0 to 100
[12] = Postemergence, 62 g ai/ha, scale 0 to 100 (0 no effect, 100 complete control)
[13] = Postemergence, 125 g ai/ha, scale 0 to 100 (0 no effect, 100 complete control)
[14] = Postemergence, 250 g ai/ha, scale 0 to 100 (0 no effect, 100 complete control)
[15] = 31 g ai/ha, 0 to 100 scale (0 no effect, 100 complete control)
[16] = 125 g ai/ha, scale 0 to 100 (0 no effect, 100 complete control)
[17] = 250 g ai/ha, scale 0 to 100 (0 no effect, 100 complete control), 13 to 15 days
[18] = Postemergence, 16 g ai/ha, scale 0 to 100
[19] = Preemergence, 16 g ai/ha, scale 0 to 100, 0 no effect, 100 complete control
[20] = Preemergence, 31 g ai/ha, scale 0 to 100 (0 no effect, 100 complete control)

## COCCn1c(-c2cc(F)cc(F)c2)ncc(C(=O)C2=C(O)C3CCC(C3)C2=O)c1=O (centres unmarked) [Compound 243, 2-(3,5-difluorophenyl)-5-[(2-hydroxy-4-oxobicyclo[3.2.1]oct-2-en-3-yl)carbonyl]-3-(2-methoxyethyl)-4(3H)-pyrimidinone]
[1]; [5]
  Plant response rating, Russian Thistle: 100
[1]; [6]
  Plant response rating, Russian Thistle: 100
[1]; [7]
  Plant response rating, Russian Thistle: 100
[1]
  Russian Thistle plant response rating: 100
[2]; [8]
  Plant response rating, Crabgrass, Naked: 100
[2]; [9]
  Plant response rating, Crabgrass, Naked: 100
[2]; [10]
  Plant response rating, Crabgrass, Naked: 100
[3]; [11]
  Plant response rating, Morningglory: 75
[3]; [12]
  Plant response rating, Morningglory: 85
[3]; [13]
  Plant response rating, Morningglory: 85
[3]; [14]
  Plant response rating, Morningglory: 85
[3]; [9]
  Plant response rating, Morningglory: 98
[3]; [10]
  Plant response rating, Morningglory: 100

## O=C1CCCC(O)=C1C(=O)c1cnc(-c2cccs2)n(C2CCCCC2)c1=O [Compound 189]
[4]; [15]
  Plant response rating, Deadnettle: 85
[4]; [16]
  Plant response rating, Deadnettle: 100
[4]; [17]
  Plant response rating, Deadnettle: 100

## CCCCc1ncc(C(=O)C2=C(O)CCCC2=O)c(=O)n1-c1ccc(C)cc1 [Compound 67]
[1]; [5]
  Plant response rating, Russian Thistle: 85

## O=C1CCCC(O)=C1C(=O)c1cnc(-c2ccc(F)cc2)n(C2CCCCC2)c1=O [Compound 197]
[4]; [15]
  Plant response rating, Deadnettle: 100
[4]; [6]
  Plant response rating, Deadnettle: 100
[4]; [16]
  Plant response rating, Deadnettle: 100
[4]; [17]
  Plant response rating, Deadnettle: 100

## CCCn1c(-c2cccc(Cl)c2)ncc(C(=O)C2=C(O)CCCC2=O)c1=O [Compound 190]
[4]; [15]
  Plant response rating, Deadnettle: 65
[4]; [16]
  Plant response rating, Deadnettle: 100
[4]; [17]
  Plant response rating, Deadnettle: 100

## Cc1cc(-n2c(-c3cccc(F)c3)ncc(C(=O)C3=C(O)CCCC3=O)c2=O)ccc1F [Compound 191]
[4]; [15]
  Plant response rating, Deadnettle: 90
[4]; [6]
  Plant response rating, Deadnettle: 100
[4]; [16]
  Plant response rating, Deadnettle: 100
[4]; [17]
  Plant response rating, Deadnettle: 100

## O=C1CCCC(O)=C1C(=O)c1cnc(-c2cccc(F)c2)n(C2CCCCC2)c1=O [Compound 187]
[4]; [15]
  Plant response rating, Deadnettle: 80
[4]; [17]
  Plant response rating, Deadnettle: 100

## CCCc1ncc(C(=O)C2=C(O)CCCC2=O)c(=O)n1CC1CCCO1 (centres unmarked) [Compound 74]
[1]; [5]
  Plant response rating, Russian Thistle: 0
[1]; [6]
  Plant response rating, Russian Thistle: 80
[1]; [7]
  Plant response rating, Russian Thistle: 90
[1]
  Russian Thistle plant response rating: 98

## CCCc1ncc(C(=O)C2=C(O)CCCC2=O)c(=O)n1-c1ccccc1C [Compound 73]
[1]; [5]
  Plant response rating, Russian Thistle: 0

## O=C1CCCC(O)=C1C(=O)c1cnc(-c2ccccc2)n(CC2CCCO2)c1=O (centres unmarked) [Compound 59]
[2]; [11]
  Plant response rating, Crabgrass, Naked: 30
[2]; [12]
  Plant response rating, Crabgrass, Naked: 50
[2]; [13]
  Plant response rating, Crabgrass, Naked: 70
[2]; [18]
  Plant response rating, Crabgrass, Naked: 20
[2]; [19]
  Plant response rating, Crabgrass, Naked: 0
[2]; [20]
  Plant response rating, Crabgrass, Naked: 0
[2]; [8]
  Plant response rating, Crabgrass, Naked: 65
[2]; [9]
  Plant response rating, Crabgrass, Naked: 95
[3]; [11]
  Plant response rating, Morningglory: 40
[3]; [12]
  Plant response rating, Morningglory: 50
[3]; [13]
  Plant response rating, Morningglory: 50
[3]; [18]
  Plant response rating, Morningglory: 0
[3]; [19]
  Plant response rating, Morningglory: 0
[3]; [20]
  Plant response rating, Morningglory: 0
[3]; [8]
  Plant response rating, Morningglory: 0
[3]; [9]
  Plant response rating, Morningglory: 80

## COCCn1c(-c2ccsc2)ncc(C(=O)C2=C(O)C3CCC(C3)C2=O)c1=O (centres unmarked) [Compound 228]
[3]; [13]
  Plant response rating, Morningglory: 50

## CCCCn1c(-c2cc(F)cc(F)c2)ncc(C(=O)C2=C(O)C3CCC(C3)C2=O)c1=O (centres unmarked) [Compound 245]
[3]; [11]
  Plant response rating, Morningglory: 70
[3]; [12]
  Plant response rating, Morningglory: 75
[3]; [13]
  Plant response rating, Morningglory: 80
[3]; [14]
  Plant response rating, Morningglory: 80

## COCCCn1c(-c2cccc(F)c2)ncc(C(=O)C2=C(O)C3CCC(C3)C2=O)c1=O (centres unmarked) [Compound 238]
[3]; [11]
  Plant response rating, Morningglory: 70
[3]; [12]
  Plant response rating, Morningglory: 80
[3]; [13]
  Plant response rating, Morningglory: 80
[3]; [14]
  Plant response rating, Morningglory: 90

## COCCn1c(-c2cc(F)cc(F)c2)ncc(C(=O)C2=C(O)CCCC2=O)c1=O [Compound 119]
[1]; [5]
  Plant response rating, Russian Thistle: 100
[1]; [6]
  Plant response rating, Russian Thistle: 100
[1]; [7]
  Plant response rating, Russian Thistle: 100
[1]
  Russian Thistle plant response rating: 100

## COCCCn1c(-c2cc(F)cc(F)c2)ncc(C(=O)C2=C(O)CCCC2=O)c1=O [Compound 120]
[1]; [6]
  Plant response rating, Russian Thistle: 80
[1]; [7]
  Plant response rating, Russian Thistle: 80

## COCCn1c(-c2cccc(C)c2)ncc(C(=O)C2=C(O)C3CCC(C3)C2=O)c1=O (centres unmarked) [Compound 233]
[2]; [11]
  Plant response rating, Crabgrass, Naked: 50
[2]; [12]
  Plant response rating, Crabgrass, Naked: 60
[2]; [13]
  Plant response rating, Crabgrass, Naked: 70
[2]; [18]
  Plant response rating, Crabgrass, Naked: 30
[2]; [19]
  Plant response rating, Crabgrass, Naked: 0
[2]; [20]
  Plant response rating, Crabgrass, Naked: 0
[2]; [8]
  Plant response rating, Crabgrass, Naked: 65
[2]; [9]
  Plant response rating, Crabgrass, Naked: 65
[3]; [11]
  Plant response rating, Morningglory: 60
[3]; [12]
  Plant response rating, Morningglory: 70
[3]; [13]
  Plant response rating, Morningglory: 70
[3]; [18]
  Plant response rating, Morningglory: 50
[3]; [19]
  Plant response rating, Morningglory: 0
[3]; [20]
  Plant response rating, Morningglory: 80
[3]; [8]
  Plant response rating, Morningglory: 95
[3]; [9]
  Plant response rating, Morningglory: 95

## COCCn1c(-c2cccc(F)c2)ncc(C(=O)C2=C(O)C3CCC(C3)C2=O)c1=O (centres unmarked) [Compound 235]
[3]; [11]
  Plant response rating, Morningglory: 75
[3]; [12]
  Plant response rating, Morningglory: 75
[3]; [13]
  Plant response rating, Morningglory: 95
[3]; [14]
  Plant response rating, Morningglory: 95

## O=C1CCCC(O)=C1C(=O)c1cnc(-c2cccc(Cl)c2)n(-c2ccc(Cl)cc2)c1=O [Compound 64]
[1]; [6]
  Plant response rating, Russian Thistle: 0

## Cc1ccc(Cl)cc1-n1c(-c2cccc(F)c2)ncc(C(=O)C2=C(O)CCCC2=O)c1=O [Compound 184]
[4]; [15]
  Plant response rating, Deadnettle: 100
[4]; [16]
  Plant response rating, Deadnettle: 100
[4]; [17]
  Plant response rating, Deadnettle: 100

## COCCn1c(-c2ccccc2)ncc(C(=O)C2=C(O)CCCC2=O)c1=O [Compound 85]
[2]; [11]
  Plant response rating, Crabgrass, Naked: 50
[2]; [12]
  Plant response rating, Crabgrass, Naked: 75
[2]; [13]
  Plant response rating, Crabgrass, Naked: 80
[2]; [19]
  Plant response rating, Crabgrass, Naked: 0
[2]; [20]
  Plant response rating, Crabgrass, Naked: 95
[2]; [8]
  Plant response rating, Crabgrass, Naked: 95
[2]; [9]
  Plant response rating, Crabgrass, Naked: 98
[3]; [11]
  Plant response rating, Morningglory: 70
[3]; [12]
  Plant response rating, Morningglory: 75
[3]; [13]
  Plant response rating, Morningglory: 90
[3]; [18]
  Plant response rating, Morningglory: 70
[3]; [20]
  Plant response rating, Morningglory: 70
[3]; [8]
  Plant response rating, Morningglory: 90
[3]; [9]
  Plant response rating, Morningglory: 100
